# Data from paper PMC6414029, “Utilisation of the Prestwick Chemical Library to identify drugs that inhibit the growth of mycobacteria” (PLoS ONE, 2019).
# Structures can show the parent of a compound that is named as a salt. Where two headings read alike, the source gives them in different places.
# Columns and labels:
# M. smegmatis [1] = experiment: microbe, parasite or virus in culture; format: cell-based, Mycobacterium smegmatis; details: liquid medium
# M. smegmatis [2] = experiment: MIC determination on solid agar; format: cell-based, Mycobacterium smegmatis; details: for MIC: read-out: Solid MIC
# Protocol: Drugs were diluted from a 10mM stock, mixed individually in 2 mLs of molten 7H10 agar and dispensed in square partitioned petri plates. Plates were incubated at 37°C and solid MIC was determined based on absence of colonies.
# BCG [3] = experiment: microbe, parasite or virus in culture; format: cell-based, Mycobacterium bovis BCG; details: for MIC: Mycobacterium tuberculosis variant bovis BCG, BCG, read-out: Liquid MIC
# BCG [4] = experiment: microbe, parasite or virus in culture; format: cell-based, Mycobacterium bovis BCG; details: for MIC: Mycobacterium tuberculosis variant bovis BCG
# M. tuberculosis H37Rv = experiment: Alamar Blue (resazurin) MIC assay; format: cell-based, Mycobacterium tuberculosis; details: liquid growth media
# Protocol: To investigate the effects of repurposed compounds on growth of M. tuberculosis H37Rv using an Alamar Blue based MIC assay using the resazurin reagent. This assay was performed in 7H9 medium containing Middlebrook broth and 0.5% glycerol and supplemented with oleic acid, albumin, dextrose, and catalase. Clear- 96-well plates were inoculated with 100 μL of drug diluted with 90 μl of 7H9 medium and 10 μL DMSO. Serial 3-fold dilutions of each drug in 100 μL of 7H9 medium were prepared at various ranges. Growth controls containing no antibiotic and sterility controls without inoculation were also included. 200 μL of sterile deionized water was added to the outer perimeter wells to prevent evaporation during plate incubation. Plates were incubated plate at 37°C for 3–4 days. After incubation, the plates were removed and 10 μL of resazurin (0.02% w/v) was added to each well that contained bacteria. Assay plates were reincubated at 37°C for 24–48 hours and visually assessed for colour development. OD 570 nm readings were taken to provide further quantitation provide an interpretation of the dose response of the bacterium to repurposed compounds.
# HepG2 cells = experiment: HepG2 cytotoxicity assay (CellTitre-Glo); format: cell-based
# Protocol: Actively growing HepG2 cells were removed from a T-175 tissue culture flask with 5 mL of Eagle’s MEM containing 10% FBS/1%NEAA/1% Penicillin and Streptomycin) and mixed with gentle pipetting. […] The cell suspension was added to 250 mL of the same medium at a final density of […]. […] Plates were allowed to incubate at 37°C at a relative humidity of 80% and 5% CO2 for 48 hours. After incubation, the plates were allowed to equilibrate at room temperature for 30 mins before 25 μL of CellTitre-Glo (Promega) reagent was added to each well using a multichannel pipette. Plates were left at room temperature for 30 mins before relative luminescence was read using a BMG Labtech POLARstar Omega plate reader.
# [5] = tested on: BCG over-expressing EchA12; experiment: microbe, parasite or virus in culture; format: cell-based, Mycobacterium bovis BCG
# BCG over-expressing AroB = experiment: microbe, parasite or virus in culture; format: cell-based, Mycobacterium bovis BCG
# M. smegmatis [6] = format: cell-based, Mycobacterium smegmatis; details: 20 μM compound, 48 hr read, GFP fluorescence
# BCG [7] = format: cell-based, Mycobacterium bovis BCG
# [8] = Mycolicibacterium smegmatis, M. smegmatis, 7H10 solid agar, absence of colonies
# [9] = read-out: Solid MIC, BCG, 7H10 solid agar, absence of colonies
# [10] = read-out: Solid MIC, BCG, solid agar, values given in mM
# [11] = M. smegmatis, 7H10 solid agar, absence of colonies
smiles,measurement,setting,value
CCCCC(CC)CNC(=N)NC(=N)NCCCCCCNC(=N)NC(=N)NCC(CC)CCCC (stereo not shown) [Alexidine],MIC,M. smegmatis [1]; Mycolicibacterium smegmatis,6.15 µM
CN1CCc2cccc3c2[C@H]1Cc1ccc(O)c(O)c1-3 [Apomorphine],MIC,M. smegmatis [1],241.7 µM
same,MIC,M. smegmatis [2]; [8],625 µM
COc1ccc(CCN2CCC(Nc3nc4ccccc4n3Cc3ccc(F)cc3)CC2)cc1 [Astemizole],Liquid MIC,BCG [3],17.78 µM
same,MIC,BCG [3],17.8 µM
same,MIC,BCG [4]; [9],0.05 mM
same,MIC,BCG [4]; [10],~0.05 mM
CC(=O)OC[C@H]1O[C@@H]([S-])[C@H](OC(C)=O)[C@@H](OC(C)=O)[C@@H]1OC(C)=O.CCP(CC)CC.[Au+] [Auranofin],MIC,M. smegmatis [1],0.51 µM
same,Solid MIC relative to liquid MIC,M. smegmatis [2]; M. smegmatis,12 fold
same,MIC,M. smegmatis [2]; [11],6.0 µM
same,MIC,M. tuberculosis H37Rv,0.27 µM
same,IC50,HepG2 cells; 48 hours,3 µM
[H]/N=C(\N/C(=N/[H])NCCCCCCNC(=N)NC(=N)Nc1ccc(Cl)cc1)Nc1ccc(Cl)cc1 [Chlorhexidine],MIC,M. smegmatis [1]; Mycolicibacterium smegmatis,1.98 µM
same,MIC,M. smegmatis [1],1.95 µM
same,MIC,M. smegmatis [2]; [8],16 µM
CCN(CC)CCOc1ccc(C(=C(Cl)c2ccccc2)c2ccccc2)cc1 [Clomiphene citrate],MIC,M. smegmatis [1]; Mycolicibacterium smegmatis,9.03 to 26.6 µM
same,MIC,M. smegmatis [1],9.03 µM
same,MIC,M. smegmatis [2]; [8],37.5 µM
same,MIC,M. tuberculosis H37Rv; Mycobacterium tuberculosis,7.59 µM
O=c1c2ccccc2[se]n1-c1ccccc1 [Ebselen],MIC,M. smegmatis [1]; Mycolicibacterium smegmatis,10.3 µM
same,MIC,M. tuberculosis H37Rv; Mycobacterium tuberculosis,18.5 µM
same,IC50,"HepG2 cells; Homo sapiens, HepG2, 48 hours",45 µM
CC(NCCC(c1ccccc1)c1ccccc1)c1ccccc1 (stereo not shown) [Fendiline hydrochloride],MIC,M. smegmatis [1]; Mycolicibacterium smegmatis,77 to 828 µM
same,MIC,M. smegmatis [1],77.57 µM
same,MIC,M. smegmatis [2]; [8],15.6 µM
CS(=O)(=O)c1ccc([C@@H](O)[C@@H](CF)NC(=O)C(Cl)Cl)cc1 [Florfenicol],Liquid MIC,BCG [3],0.67 µM
same,MIC,BCG [3],0.7 µM
same,Solid MIC relative to liquid MIC,BCG [4],5 fold
same,Solid MIC,"BCG [4]; 7H10 solid agar, absence of colonies, listed as Florfenciol",6 µM
same,MIC,BCG [4]; [9],~0.005 mM
same,MIC,M. tuberculosis H37Rv; Mycobacterium tuberculosis,25.4 µM
same,IC50,"HepG2 cells; Homo sapiens, HepG2, 48 hours",> 250 µM
same,"MIC in the absence of EchA12 over-expression, compared with wild-type BCG",[5],unchanged
same,MIC,"[5]; Mycobacterium tuberculosis variant bovis BCG, BCG, read-out: MIC upon over-expression of EchA12",> 12 µM
O=C1NCN(c2ccccc2)C12CCN(CCCC(c1ccc(F)cc1)c1ccc(F)cc1)CC2 [Fluspirilene],MIC,M. smegmatis [1],827.5 µM
"Fc1ccc(C(OCCN2CCN(CCCc3ccccc3)CC2)c2ccc(F)cc2)cc1 [GBR 12909, Vanoxerine]",MIC,M. smegmatis [1]; Mycolicibacterium smegmatis,18.6 µM
same,MIC,M. smegmatis [2]; [8],62.5 µM
same,MIC,BCG [3],20.5 µM
same,MIC,BCG [4]; [9],0.0282 mM
same,MIC,M. tuberculosis H37Rv; Mycobacterium tuberculosis,26.6 µM
same,IC50,"HepG2 cells; Homo sapiens, HepG2, 48 hours",55 µM
same,"MIC in the absence of AroB over-expression, compared with wild-type BCG",BCG over-expressing AroB,unchanged
same,MIC,"BCG over-expressing AroB; Mycobacterium tuberculosis variant bovis BCG, BCG, read-out: MIC upon over-expression of AroB",> 50 µM
Cc1cnc(C(=O)NCCc2ccc(S(=O)(=O)NC(=O)NC3CCCCC3)cc2)cn1 [Glipizide],Liquid MIC,BCG [3],191.10 µM
same,MIC,BCG [3],191 µM
"CN1C2CCCC1CC(NC(=O)c1nn(C)c3ccccc13)C2 (stereo not shown) [Granisteron, Granisetron]",Liquid MIC,BCG [3],210.60 µM
same,MIC,BCG [3],211 µM
same,MIC,BCG [4]; [9],≥ 0.5 mM
same,MIC,BCG [4]; [10],> 0.5 mM
CO[C@@H]1[C@@H](O[C@@H]2O[C@H](C)[C@@H](O[C@H]3C[C@@](C)(O)[C@@H](OC(=O)CC(C)C)[C@H](C)O3)[C@H](N(C)C)[C@H]2O)[C@@H](CC=O)C[C@@H](C)[C@@H](O)/C=C/C=C/C[C@@H](C)OC(=O)C[C@H]1OC(C)=O [Josamycin],Liquid MIC,BCG [3],0.10 µM
same,MIC,BCG [3],0.1 µM
same,MIC,BCG [4]; [9],> 0.1 mM
"C=C1c2c(Cl)ccc(O)c2C(=O)C2=C(O)[C@]3(O)C(=O)C(C(N)=O)=C(O)[C@@H](N(C)C)[C@@H]3[C@@H](O)[C@H]12 [Meclocyline sulfosalicylate, meclocycline sulfosalicylate]",MIC,M. smegmatis [1]; Mycolicibacterium smegmatis,0.1 µM
same,MIC,M. smegmatis [2]; [11],0.20 µM
same,MIC,M. smegmatis [2]; Mycolicibacterium smegmatis,0.2 µM
COC(=O)C1=C(C)NC(C)=C(C(=O)OCC(C)C)C1c1ccccc1[N+](=O)[O-] (stereo not shown) [Nisoldipine],MIC,M. smegmatis [1],396.2 µM
same,MIC,M. smegmatis [2]; [8],100 µM
CN(C)CC/C=C1/c2ccccc2COc2ccc(CC(=O)O)cc21 [Olopatadine],Liquid MIC,BCG [3],202.30 µM
same,MIC,BCG [3],202 µM
same,MIC,BCG [4]; [9],≥ 0.5 mM
same,MIC,BCG [4]; [10],> 0.5 mM
N=C(N)c1ccc(OCCCCCOc2ccc(C(=N)N)cc2)cc1 [Pentamidine],MIC,BCG [3],3.23 µM
same,MIC,BCG [4]; [9],0.05 mM
same,MIC,BCG [4]; [10],~0.05 mM
same,MIC,M. tuberculosis H37Rv; Mycobacterium tuberculosis,10.5 µM
same,IC50,"HepG2 cells; Homo sapiens, HepG2, 48 hours",3.5 µM
"CC(C)(N)Cc1ccccc1 [Phenteramine, Phentermine]",MIC,BCG [3],375 µM
O=C(c1ccc(OCCN2CCCCC2)cc1)c1c(-c2ccc(O)cc2)sc2cc(O)ccc12 [Raloxifene],MIC,M. smegmatis [1],25.7 µM
same,MIC,M. smegmatis [2]; [11],312.5 µM
same,MIC,M. tuberculosis H37Rv,22.10 µM
same,IC50,HepG2 cells; 48 hours,20 µM
CN(CCOc1ccc(CC2SC(=O)NC2=O)cc1)c1ccccn1 (stereo not shown) [Rosiglitazone],MIC,BCG [3],43.1 µM
same,MIC,BCG [4]; [9],≥ 1.5 mM
same,MIC,BCG [4]; [10],~1.5 mM
CN[C@H]1CC[C@@H](c2ccc(Cl)c(Cl)c2)c2ccccc21 [Sertraline],MIC,M. smegmatis [1],526.7 µM
same,MIC,M. smegmatis [2]; [8],90 µM
CCCCCCCCNC(C)C(O)c1ccc(SC(C)C)cc1 (stereo not shown) [Sulocitidil],MIC,M. smegmatis [1],87.22 µM
same,MIC,M. smegmatis [2]; [11],625 µM
CC/C(=C(\c1ccccc1)c1ccc(OCCN(C)C)cc1)c1ccccc1 [Tamoxifen citrate],MIC,M. smegmatis [1],26.48 µM
same,MIC,M. tuberculosis H37Rv; Mycobacterium tuberculosis,≥ 100 µM
"CCCCCCCCCCCCCCCC[N+](C)(C)CCN(Cc1ccc(OC)cc1)c1ncccn1 [Thonzonium, Thonzonium bromide]",MIC,BCG [3],0.16 µM
same,Solid MIC relative to liquid MIC,BCG [4],5 fold
same,MIC,BCG [4]; [9],~0.005 mM
CN(C)CCOc1ccc(/C(=C(/CCCl)c2ccccc2)c2ccccc2)cc1 [Toremifene],MIC,M. smegmatis [1],23.76 µM
same,MIC,M. smegmatis [2]; [8],62.5 µM
CN(C)CCN(Cc1ccccc1)c1ccccn1 [Tripelennamine],MIC,BCG [3],41.9 µM
same,Solid MIC relative to liquid MIC,BCG [4],2 fold
same,MIC,BCG [4]; [9],0.1 mM
same,MIC,BCG [4]; [10],0.1 mM
same,MIC,M. tuberculosis H37Rv; Mycobacterium tuberculosis,49.3 µM
same,IC50,"HepG2 cells; Homo sapiens, HepG2, 48 hours",> 250 µM
CC[C@@H](CO)NCCN[C@@H](CC)CO [ethambutol],% survival,M. smegmatis [6],< 25%
same,% survival,BCG [7],< 25%
NNC(=O)c1ccncc1 [isoniazid],% survival,M. smegmatis [6],< 25%
same,% survival,BCG [7],< 25%
NC(=O)c1cnccn1 [pyrazinamide],% survival,BCG [7],< 25%
CO[C@H]1/C=C/O[C@@]2(C)Oc3c(C)c(O)c4c(O)c(c(/C=N/N5CCN(C)CC5)c(O)c4c3C2=O)NC(=O)/C(C)=C\C=C\[C@H](C)[C@H](O)[C@@H](C)[C@@H](O)[C@@H](C)[C@H](OC(C)=O)[C@@H]1C [rifampicin],% survival,M. smegmatis [6],< 25%
same,% survival,BCG [7],< 25%
[H]/N=C(/N)N[C@H]1[C@H](O)[C@@H](O)[C@H](O[C@@H]2O[C@@H](C)[C@](O)(C=O)[C@H]2O[C@@H]2O[C@@H](CO)[C@H](O)[C@@H](O)[C@@H]2NC)[C@@H](N/C(N)=N\[H])[C@@H]1O [streptomycin],% survival,M. smegmatis [6],< 25%
same,% survival,BCG [7],< 25%
